Measurements taken from patent US9439430B2, “Method of controlling resistant harmful plants” (priority 2012, dated 2016).

How the values were obtained:
[1] = test system: BRODI; assay: Greenhouse test, pre-emergence (PE) soil application; format: in vivo, Bromus diformis; parameters: key: % effect: 0 = no effect, 100 = full effect vs untreated
From the text: (§1) The 1:1 mixture of the two soil types was used specifically for cultivating small-seeded dicotyledonous weed since the standard field soil on its own tends to silt up, which may have an adverse effect on the emergence of small-seeded weeds. The resistances mentioned in the tables were confirmed beforehand in standard monitoring experiments. Nevertheless, the origins examined may have additional, hitherto unconfirmed resistances to various mechanisms of action.
(§2) The pots were then cultivated in a greenhouse (12-16 h light, temperature day 20-22° C., night 15-18° C.) until the time of application. The pots were treated at various BBCH stages of the seeds/plants on a laboratory track sprayer with spray liquors comprising the compositions according to the invention, mixtures of the prior art or the individual components. Application of the active compounds or active compound combinations and wetting agents formulated as WG, WP, EC or otherwise was carried out at the appropriate growth stages of the plants. The amount of water used for spray application was 100-600 l/ha. After the treatment, the plants were returned to the greenhouses and fertilized and watered as required. The pots were cultivated in a greenhouse (12-16 h light, temperature day 20-22° C., night 15-18° C.).
(§3) 3 weeks after the application, the foliar effect was evaluated on a scale of 0-100%:
(§4) 0%=no noticeable effect compared to untreated plants
(§5) 100%=full effect compared to untreated plants
(§6) The following abbreviations were used: • BBCH the BBCH code provides information about the morphological development stage of a plant. Officially, the abbreviation denotes the Biologische Bundesanstalt, Bundessortenamt and CHemische Industrie [Federal Biological Institute for Agriculture and Forestry, Federal Office for Crop Plant Varieties, Chemical Industry]. The range of BBCH 00-10 denotes the germination stages of the seeds until surface penetration. The range of BBCH 11-25 denotes the leaf development stages until stocking (corresponds to the number of tillers or side-shoots). • PE pre-emergence soil application; BBCH of the seeds/plants 00-10 • PO post-emergence application on the green parts of the plants; BBCH of the plants 11-25 • IU soil loamy silt—standard field soil • l/ha liters per hectare • S sensitive—the weed populations are sensitive to the active compounds tested • TSR target-site resistance. The weed populations comprise biotypes having a site-of-action-specific resistance, i.e. the binding site at the site of action is modified as a result of natural mutations in the gene sequence so that the active compounds are no longer able to bind, or bind in an unsatisfactory manner, and are therefore no longer able to act. • NTR non-target-site herbicide resistance; this is differentiated, inter alia, into EMR (Enhanced Metabolic Resistance) (the weed populations comprise biotypes having metabolic resistance, i.e. the plants are capable of metabolizing the active compounds more quickly via enzyme complexes, i.e. the active compounds are degraded more quickly in the plant), into reduced penetration into the plant, reduced translocation in the plant, accelerated excretion. […]

[2] = test system: KCHSC; assay: as above; format: in vivo, Kochia scoparia; parameters: key: % effect: 0 = no effect, 100 = full effect vs untreated
From the text: as §1, §2, §3, §4, §5, §6

[3] = test system: AMATA; assay: Greenhouse test, post-emergence (PO) application, foliar effect; format: in vivo, Amaranthus rudis; conditions: (A) 50, (B) 20, mixture 50 + 20 g of AS/ha, 3 weeks after application
From the text: as §1, §2, §3, §4, §5, §6

[4] = test system: BRODI; assay: as above; format: in vivo, Bromus diformis; conditions: (A) 50, (B) 20, mixture 50 + 20 g of AS/ha, 3 weeks after application
From the text: as §1, §2, §3, §4, §5, §6

[5] = test system: KCHSC; assay: as above; format: in vivo, Kochia scoparia; conditions: (A) 50, (B) 20, mixture 50 + 20 g of AS/ha, 3 weeks after application
From the text: as §1, §2, §3, §4, §5, §6

[6] = test system: APESV; assay: as above; format: in vivo, Apera spica-venti; conditions: (A) 50, (B) 20, mixture 50 + 20 g of AS/ha, 3 weeks after application
From the text: as §1, §2, §3, §4, §5, §6

[7] = test system: AMATA; assay: Greenhouse test, pre-emergence (PE) soil application; format: in vivo, Amaranthus rudis; parameters: key: % effect: 0 = no effect, 100 = full effect vs untreated
From the text: as §1, §2, §3, §4, §5, §6

[8] = test system: ERIBO; assay: Greenhouse test, post-emergence (PO) application, foliar effect; format: in vivo, Erigeron bonariensis; conditions: (A) 50, (B) 20, mixture 50 + 20 g of AS/ha, 3 weeks after application
From the text: as §1, §2, §3, §4, §5, §6

[9] = test system: TTTTT (all resistant and sensitive biotypes); assay: Greenhouse test, PO application, mean over all resistant and sensitive biotypes; format: in vivo; conditions: (A) 50, (B) 20, mixture 50 + 20 g of AS/ha; for TTTTT resistant mean (effect): mean of resistant biotypes (n = 17 or n = 15); for TTTTT sensitive mean (effect): mean of sensitive biotypes (n = 11)
From the text: as §1, §2, §3, §4, §5, §6

[10] = test system: LOLSS; assay: Greenhouse test, post-emergence (PO) application, foliar effect; format: in vivo, Lolium spp.; conditions: (A) 50, (B) 20, mixture 50 + 20 g of AS/ha, 3 weeks after application
From the text: as §1, §2, §3, §4, §5, §6

[11] = test system: BIDSU; assay: as above; format: in vivo, Bidens subalternans; conditions: BIDSU sensitive, (A) 50, (B) 20, mixture 50 + 20 g of AS/ha, 3 weeks after application
From the text: as §1, §2, §3, §4, §5, §6

[12] = test system: LOLSS; assay: Greenhouse test, pre-emergence (PE) soil application; format: in vivo, Lolium spp.; parameters: key: % effect: 0 = no effect, 100 = full effect vs untreated plants
From the text: as §1, §2, §3, §4, §5, §6

[13] = test system: ERICA; assay: Greenhouse test, post-emergence (PO) application, foliar effect; format: in vivo, Erigeron canadensis; conditions: (A) 50, (B) 20, mixture 50 + 20 g of AS/ha, 3 weeks after application
From the text: as §1, §2, §3, §4, §5, §6

[14] = test system: CHEAL; assay: as above; format: in vivo, Chenopodium album; conditions: (A) 50, (B) 20, mixture 50 + 20 g of AS/ha, 3 weeks after application
From the text: as §1, §2, §3, §4, §5, §6

[15] = AMATA resistant - group B (TSR), C1 (TSR)
[16] = BRODI resistant - group A (TSR), B (NTR) and G (NTR)
[17] = KCHSC resistant - group B (TSR)
[18] = APESV resistant - group B (TSR, NTR) and K1/3 (NA)
[19] = ERIBO resistant - group B (NA) and G (NTR)
[20] = LOLSS resistant - group G (NTR)
[21] = LOLSS resistant group A (TSR, NTR), B (NTR) and C2 (NA)
[22] = LOLSS resistant group A (TSR, NTR), B (TSR, NTR) and C2 (NA)
[23] = ERICA resistant - group B (NA) and G (NTR)
[24] = CHEAL resistant - group B (TSR), C1 (NA) and G (NTR)
[25] = group (B) compound alone, 20 g of AS/ha

Row | Compound | foliar effect [3, 15] [%] | foliar effect ([3]; AMATA sensitive) [%] | foliar effect [4, 16] [%] | foliar effect ([4]; BRODI sensitive) [%] | foliar effect [5, 17] [%] | foliar effect ([5]; KCHSC sensitive) [%] | foliar effect [6, 18] [%] | foliar effect ([6]; APESV sensitive) [%] | foliar effect [8, 19] [%] | foliar effect ([8]; ERIBO sensitive) [%] | TTTTT resistant mean (effect) [9] [%] | TTTTT sensitive mean (effect) [9] [%] | foliar effect [10, 20] [%] | foliar effect [10, 21] [%] | foliar effect [10, 22] [%] | foliar effect ([10]; LOLSS sensitive) [%] | foliar effect [11] [%] | foliar effect [13, 23] [%] | foliar effect ([13]; ERICA sensitive) [%] | foliar effect [14, 24] [%] | other results
1 | Cc1ccc2c(c1)[C@H](Nc1nc(N)nc(C(C)F)n1)[C@@H](C)C2 (stereo partly shown) [(A), indaziflam] | 40 | 50 | 65 | 70 | 30 | 30 | 60 | 65 | 50 | 50 | 53 | 58 | 65 | 60 | 60 | 75 | 40 | 50 | 50 | 70 | effect on BRODI resistant - group A (TSR), B (NTR) and G (NTR) ([1]; (A) alone, 12.5 g of AS/ha): 70; effect on BRODI sensitive ([1]; (A) alone, 12.5 g of AS/ha): 75; effect on KCHSC resistant - group B (TSR) ([2]; (A) alone, 12.5 g of AS/ha): 40; effect on KCHSC sensitive ([2]; (A) alone, 12.5 g of AS/ha): 40; effect on AMATA resistant - group B (TSR), C1 (TSR) ([7]; (A) alone, 12.5 g of AS/ha): 70; effect on AMATA sensitive ([7]; (A) alone, 12.5 g of AS/ha): 70; effect on LOLSS resistant - group G (NTR) ([12]; (A) alone, 12.5 g of AS/ha): 75; effect on LOLSS resistant group A (TSR, NTR), B (NTR) and C2 (NA) ([12]; (A) alone, 12.5 g of AS/ha): 50; effect on LOLSS resistant group A (TSR, NTR), B (TSR, NTR) and C2 (NA) ([12]; (A) alone, 12.5 g of AS/ha): 50; effect on LOLSS sensitive ([12]; (A) alone, 12.5 g of AS/ha): 80; foliar effect ([14]; CHEAL sensitive): 70%
2 | COc1cc(OC)nc(NC(=O)NS(=O)(=O)c2ncccc2C(F)(F)F)n1 [(B1), flazasulfuron] | 50 | 60 | 75 | 100 | 0 | 90 | 30 | 100 | 50 | 90 | 40 | 87 | 60 | 60 | 30 | 95 | 70 | 50 | 90 | 70 | effect on BRODI resistant - group A (TSR), B (NTR) and G (NTR) [1, 25]: 70; effect on BRODI sensitive [1, 25]: 80; effect on KCHSC resistant - group B (TSR) [2, 25]: 0; effect on KCHSC sensitive [2, 25]: 70; effect on AMATA sensitive [7, 25]: 70; effect on LOLSS resistant - group G (NTR) [12, 25]: 80; effect on LOLSS resistant group A (TSR, NTR), B (NTR) and C2 (NA) [12, 25]: 70; effect on LOLSS resistant group A (TSR, NTR), B (TSR, NTR) and C2 (NA) [12, 25]: 70; effect on LOLSS sensitive [12, 25]: 70; foliar effect ([14]; CHEAL sensitive): 80%
3 | COc1cc(OC)nc(NC(=O)NS(=O)(=O)c2cc(NC=O)ccc2C(=O)N(C)C)n1 [(B2), foramsulfuron] | 90 | 40 | 75 | 100 | 0 | 90 | 0 | 100 | 40 | 50 | 34 | 74 | 50 | 60 | 40 | 100 | 30 | 40 | 50 | 70 | effect on BRODI resistant - group A (TSR), B (NTR) and G (NTR) [1, 25]: 70; effect on BRODI sensitive [1, 25]: 75; effect on KCHSC resistant - group B (TSR) [2, 25]: 0; effect on KCHSC sensitive [2, 25]: 60; effect on AMATA sensitive [7, 25]: 60; effect on LOLSS resistant - group G (NTR) [12, 25]: 65; effect on LOLSS resistant group A (TSR, NTR), B (NTR) and C2 (NA) [12, 25]: 80; effect on LOLSS resistant group A (TSR, NTR), B (TSR, NTR) and C2 (NA) [12, 25]: 60; effect on LOLSS sensitive [12, 25]: 78; foliar effect ([14]; CHEAL sensitive): 70%
